Results as given in publication PMC4164784, “4E-BPs require non-canonical 4E-binding motifs and a lateral surface of eIF4E to repress translation” (Nature Communications, 2014).
No end group written: not given here.

What was measured:
[1] = test system: endogenous eIF4E and HA-tagged 4E-BPs in S2 cells; experiment: Immunofluorescence localization in S2 cells; format: cell-based, Drosophila melanogaster; details: −LMB; for localization of endogenous eIF4E (in words): S2 cells overexpressing 4E-BP or mutant; for localization of the 4E-BP (in words): S2 cells, steady-state
eIF4E (full length, WT) = experiment: GST/MBP pull-down of full-length WT eIF4E, coexpressed in E. coli; format: binding, Drosophila melanogaster; details: recombinant CUP (311–440), Thor (full length), 4E-T (1–58) or eIF4G (578–650), WT or mutant, SDS–PAGE
Method: For the pull-down assays shown in Fig. 3 and Supplementary Fig. 6a, the full-length His6- or SHN-tagged eIF4E (WT or II-AA mutant) was coexpressed with GST or MBP-tagged protein fragments, including CUP (residues 311–440), Thor (full length), 4E-T (residues 1–58) or eIF4G (residues 578–650) in E. coli BL21 (DE3) STAR cells in autoinducing medium[44] overnight at 20 °C. The cells were resuspended in lysis buffer (20 mM Tris–HCl (pH 7.5), 100 mM NaCl, 1 mM DTT) supplemented with EDTA-free protease inhibitor (Roche) and lysed by sonication. The cleared lysates were incubated for 1 h with 20 μl of Protino Glutathione Agarose 4B beads (Macherey-Nagel) or amylose resin (New England Biolabs). The beads were washed three times with lysis buffer, and the bound proteins were eluted with lysis buffer containing 25 mM L-glutathione or 25 mM maltose for 15 min. The proteins were analyzed by 10–15% SDS–PAGE followed by Coomassie blue staining.

[2] = target: T1, eIF4E–eIF4G complex (eIF4E WT; eIF4G residues 578–650) (Drosophila melanogaster, UniProt P48598); experiment: Kinetic dissociation of eIF4E–eIF4G complexes by competitor; format: biochemical; details: 1 μM complex on Strep-Tactin beads; fivefold molar excess of C+NC peptide (5 μM); CUP n=3, 4E-T n=2 averages
T1 construct: full-length eIF4E (WT or the II-AA mutant) containing an N-terminal SNH-tag was coexpressed; made in house; host or cells: E. coli BL21 Star (DE3), coexpression
T1 sequence (P48598 1-248 isoform P48598-2): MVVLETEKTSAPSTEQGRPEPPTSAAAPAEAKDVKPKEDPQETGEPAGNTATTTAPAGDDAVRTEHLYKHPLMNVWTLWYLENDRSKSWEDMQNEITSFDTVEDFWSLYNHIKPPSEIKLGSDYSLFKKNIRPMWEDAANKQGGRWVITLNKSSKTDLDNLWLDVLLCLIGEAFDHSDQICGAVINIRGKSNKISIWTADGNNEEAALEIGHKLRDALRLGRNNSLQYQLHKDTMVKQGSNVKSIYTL
Method: To obtain the preassembled eIF4E–eIF4G complexes used in Figs 4 and 5d–g, full-length eIF4E (WT or the II-AA mutant) containing an N-terminal SNH-tag was coexpressed with an N-terminal GST-tagged eIF4G (residues 578–650). The cells were lysed by sonication in lysis buffer containing 50 mM HEPES (pH 7.2), 300 mM NaCl and 2 mM DTT. The complexes were purified from the cleared lysates using Protino Glutathione Agarose 4B beads (Machery-Nagel). The complex was further purified using a heparin column (HiTrap Heparin HP 5 ml, GE Healthcare) and a final size exclusion chromatography (Superdex 200 16/60, GE Healtcare) in 20 mM HEPES (pH 7.2), 200 mM NaCl and 2 mM DTT.
In the ‘kinetic assays’ shown in Fig. 5d–g, the purified complexes containing SHN-eIF4E and GST-eIF4G (578–650; 1 μM) were incubated with Strep-Tactin beads for 20 min. […] The eIF4E-associated proteins were pulled down, eluted and analyzed as described above. […]
The amounts of GST-eIF4G bound to eIF4E in each experimental condition were determined using the Image J software after Coomassie blue staining. […]
Each experiment was repeated at least twice. (e,f) Quantification of the experiments shown in Fig. 5d–g. […]
micrographs of fixed S2 cells expressing HA-4E-T and GFP-Tral. The localization of HA-4E-T was determined by indirect immunofluorescence using an anti-HA antibody. […]

In the case of “4E-T C+NC: 4E-T residues 9–44, eIF4E-binding region short, C-terminal GB1”, the “localization of endogenous eIF4E (in words)” value [1] was “the number of eIF4E-positive P-bodies was reduced” and the “localization of the 4E-BP (in words)” value [1] was “still localized to P-bodies”.
With “4E-T C: 4E-T residues 9–21, canonical motif” the “binding to WT eIF4E (in words)” value (eIF4E (full length, WT)) was “reduced binding”, the “localization of endogenous eIF4E (in words)” value [1] was “the number of eIF4E-positive P-bodies was reduced” and the “localization of the 4E-BP (in words)” value [1] was “still localized to P-bodies”.
With “CUP C+NC: CUP residues 325–376, eIF4E-binding region short, C-terminal GB1 (KSYTRSRLMDIRNGMFNALMHRSKESFVMPRIATCDDIELEGRLRRMNIWRT-GB1; UniProt Q9VMA3 325-376, looked up, fragment)” the “time to 50% eIF4G dissociation” value [2] was 2.5 ± 0.5 min.
